Among the targets are MAP2K6; PCK2; RHOC.
Common to all, as to settings: ASO

These antisense oligonucleotides have a phosphorothioate backbone; sugars and methylation of C are not fully specified.
Also: test concentration or dose not given here.

With AAGAGAGGATTCAGGGAAGC, the remaining target (mRNA or protein) (fraction of control) with MAP2K6 was no less than 1.

In the case of AAGATGTTAGTTAATATCAA, the remaining target (mRNA or protein) (fraction of control) with PCK2 was no less than 1.

In the series with PCK2, AATGCCAGTGGGAAGCTGGC gave a remaining target (mRNA or protein) (fraction of control) of 0.88.

As to AATTTTAAGGCCAGGGTTTC, the remaining target (mRNA or protein) (fraction of control) in the series with MAP2K6 was no less than 1.

For ACACATGGCAGGAGGGACAA, the remaining target (mRNA or protein) (fraction of control) in the series with MAP2K6 is 0.78.

Consider ACCAGGCGGGAGTGGTACCG, for which the remaining target (mRNA or protein) (fraction of control) in the series with PCK2 turned out to be 0.84.

In the series with MAP2K6, AGAAGAAAACAAACAAACAA showed a remaining target (mRNA or protein) (fraction of control) of 0.82.

Consider AGACTAGGCCTCAGGTCACA, for which the remaining target (mRNA or protein) (fraction of control) with PCK2 is no less than 1.

AGGAACCGAGCGGAGCCGGG had a remaining target (mRNA or protein) (fraction of control) in the series with PCK2 of 0.68.

In the series with RHOC, AGGCACCATCCCCAACGA gave a remaining target (mRNA or protein) (fraction of control) of 0.19.

The sequence AGGGCAGGGCATAGGCGT displayed a remaining target (mRNA or protein) (fraction of control) with RHOC of 0.69.

Take AGGTCTTCCCACAGGCAC: in the series with RHOC, the remaining target (mRNA or protein) (fraction of control) is 0.6.

For AGTACACGCCACCATCACTG, in the series with PCK2, the remaining target (mRNA or protein) (fraction of control) was determined as 0.91.

In the series with RHOC, AGTTCTCAAAGACAGTAG came in with a remaining target (mRNA or protein) (fraction of control) of 0.62.

As for ATCTGTTCCTTTGGATTCAT, the remaining target (mRNA or protein) (fraction of control) with MAP2K6 came to 0.73.

With ATGAGGAGGCAGGTCTTC, the remaining target (mRNA or protein) (fraction of control) with RHOC turned out to be 0.59.

In the case of CAAGTGTCAGAAGAACCAAA, the remaining target (mRNA or protein) (fraction of control) with MAP2K6 amounted to 0.7.

For the sequence CACCGTCTTGCTCTCTACTC, the remaining target (mRNA or protein) (fraction of control) with PCK2 is 0.85.

Sequence CACTTGACAAAGTCACCATC showed a remaining target (mRNA or protein) (fraction of control) with PCK2 of no less than 1.

For CACTTTCCTGTGAGCCAG, the remaining target (mRNA or protein) (fraction of control) with RHOC is 0.18.

Regarding CAGACCGAACGGGCTCCT, the remaining target (mRNA or protein) (fraction of control) in the series with RHOC amounted to 0.35.

For the sequence CAGTTCATTCTATACTATAG, the remaining target (mRNA or protein) (fraction of control) with MAP2K6 came to 0.7.

In the series with RHOC, CATGAGGAAGGGCAGGGC showed a remaining target (mRNA or protein) (fraction of control) of no less than 1.

Turning to CCAGTCGGGTCATAATACGC, in the series with PCK2, the remaining target (mRNA or protein) (fraction of control) is 0.74.

Turning to CCCACAAACACCCCATGACG, the remaining target (mRNA or protein) (fraction of control) with PCK2 stood at 0.35.

In the series with RHOC, CCCCTCCGACGCTTGTTC registered a remaining target (mRNA or protein) (fraction of control) of 0.34.

CCGGCTGAAGTTCCCAGG returned a remaining target (mRNA or protein) (fraction of control) with RHOC of 0.58.

The sequence CCGGGCCAGCCGAGAGGCGA came in with a remaining target (mRNA or protein) (fraction of control) with PCK2 of no less than 1.

In turn, CCTGTGAGCCAGAAGTGT returned a remaining target (mRNA or protein) (fraction of control) with RHOC of 0.31.

In turn, CTCAAACACCTCCCGCAC yielded a remaining target (mRNA or protein) (fraction of control) with RHOC of 0.66.

With CTCCCGCACTCCCTCCTT, the remaining target (mRNA or protein) (fraction of control) with RHOC was 0.09.

Sequence CTCCTGGTGTGCTCGTCT came in with a remaining target (mRNA or protein) (fraction of control) with RHOC of 0.33.

In the series with PCK2, CTGCATGCAGCCTGGAAACC showed a remaining target (mRNA or protein) (fraction of control) of 0.83.

Take CTTGCCCAGCAGGGAGTTGC: the remaining target (mRNA or protein) (fraction of control) with PCK2 was no less than 1.

In the series with RHOC, CTTGTTCTTGCGGACCTG came in with a remaining target (mRNA or protein) (fraction of control) of 0.28.

On to CTTTGTGTTCTGCTGCAGCA, for which the remaining target (mRNA or protein) (fraction of control) in the series with PCK2 was 0.49.

The sequence GAAAATGGAGCCTTCAGT came in with a remaining target (mRNA or protein) (fraction of control) with RHOC of 0.76.

Take GAGCATTCTCCCCAAAGCCT: in the series with PCK2, the remaining target (mRNA or protein) (fraction of control) was determined as 0.95.

In the series with RHOC, GAGCCTTCAGTATGGAGC showed a remaining target (mRNA or protein) (fraction of control) of 0.37.

In the series with RHOC, GAGCTGAGATGAAGTCAA had a remaining target (mRNA or protein) (fraction of control) of 0.71.

In the series with PCK2, GAGCTGCACCCCGATGCGGG registered a remaining target (mRNA or protein) (fraction of control) of no less than 1.

Take GCAGGAGGGAACTGAAAA: the remaining target (mRNA or protein) (fraction of control) with RHOC turned out to be 0.73.

Take GCGTTGGGATTGGTGGTGGC: the remaining target (mRNA or protein) (fraction of control) with PCK2 amounted to 0.82.

In the series with PCK2, GCTACGGCATGATGGCCAGC showed a remaining target (mRNA or protein) (fraction of control) of 0.89.

The sequence GCTGAAGTTCCCAGGCTG had a remaining target (mRNA or protein) (fraction of control) with RHOC of 0.75.

GGAACTGAAAATGGAGCC: the remaining target (mRNA or protein) (fraction of control) with RHOC was determined as 0.98.

In the series with RHOC, GGAAGGGCAGGGCATAGG returned a remaining target (mRNA or protein) (fraction of control) of 0.79.

Sequence GGACAGTCTTTGTGGGAAGG had a remaining target (mRNA or protein) (fraction of control) with PCK2 of no less than 1.

With GGAGGGAACTGAAAATGG, in the series with RHOC, the remaining target (mRNA or protein) (fraction of control) is 0.87.

The sequence GGCACCATCCCCAACGAT gave a remaining target (mRNA or protein) (fraction of control) with RHOC of 0.19.

In turn, GGCACTAGGGAAGGCGGCTG had a remaining target (mRNA or protein) (fraction of control) in the series with PCK2 of 0.84.

In the series with PCK2, GGCAGATCCTGGTTGACCTG gave a remaining target (mRNA or protein) (fraction of control) of 0.81.

On to GGCCATCTCAAACACCTC, for which the remaining target (mRNA or protein) (fraction of control) with RHOC was 0.36.

In the case of GGCCCGGAGTCGACCTTCAC, the remaining target (mRNA or protein) (fraction of control) in the series with PCK2 came out at 0.68.

In the case of GGCGGTACAATGCGGCCATG, the remaining target (mRNA or protein) (fraction of control) in the series with PCK2 is 0.81.

GGGCCTCCCAGGCTGGGTCC: the remaining target (mRNA or protein) (fraction of control) in the series with PCK2 is no less than 1.

In the series with PCK2, GGTGATGCCCAGGATCAGCA gave a remaining target (mRNA or protein) (fraction of control) of 0.78.

In the series with PCK2, GTAGTGCCCGAAGTTGTAGC showed a remaining target (mRNA or protein) (fraction of control) of 0.77.

Consider GTATGGAGCCCTCAGGAG, for which, in the series with RHOC, the remaining target (mRNA or protein) (fraction of control) stood at 0.4.

For the sequence GTGTGCTCGTCTTGCCTC, the remaining target (mRNA or protein) (fraction of control) in the series with RHOC was 0.33.

For TAAAGTGCTGGTGTGTGA, the remaining target (mRNA or protein) (fraction of control) in the series with RHOC was 0.61.

Sequence TCAAAGACAGTAGGGACG came in with a remaining target (mRNA or protein) (fraction of control) with RHOC of no less than 1.

TCACATTTTGTGCACACGTC showed a remaining target (mRNA or protein) (fraction of control) with PCK2 of 0.76.

With TCACGAACCTCCTGTTCCCA, the remaining target (mRNA or protein) (fraction of control) with PCK2 amounted to 0.6.

For TCACGCCGGAACCAGTTGAC, the remaining target (mRNA or protein) (fraction of control) in the series with PCK2 was no less than 1.

As to TCCAGCCTGGCAGTGCAGGC, the remaining target (mRNA or protein) (fraction of control) in the series with PCK2 was determined as 0.75.

Sequence TCCATCACAGATGTGGATGC showed a remaining target (mRNA or protein) (fraction of control) in the series with PCK2 of 0.87.

Regarding TCCCACAGGCACCATCCC, in the series with RHOC, the remaining target (mRNA or protein) (fraction of control) worked out at 0.3.

Sequence TCGGATGAGGCCCTGCTGCT returned a remaining target (mRNA or protein) (fraction of control) with PCK2 of 0.86.

With TCGTCTTGCCTCAGGTCC, the remaining target (mRNA or protein) (fraction of control) in the series with RHOC was found to be 0.21.

TGAGGCCGCTGAGATCCAAG yielded a remaining target (mRNA or protein) (fraction of control) with PCK2 of 0.67.

In the case of TGATCTCCCGCTGGTCGGGC, the remaining target (mRNA or protein) (fraction of control) with PCK2 was 0.73.

With TGCAGAAACAACTCCAGG, in the series with RHOC, the remaining target (mRNA or protein) (fraction of control) is no less than 1.

Sequence TGCCTTCCCTATTCCCAGAT had a remaining target (mRNA or protein) (fraction of control) with PCK2 of 0.82.

Take TGCGGCCATGGCACCTGGGC: the remaining target (mRNA or protein) (fraction of control) with PCK2 stood at 0.55.

TGGGTGTCTCTCGGGCACTG: the remaining target (mRNA or protein) (fraction of control) in the series with PCK2 was 0.9.

TGTTTTCCAGGCTGTCAG: the remaining target (mRNA or protein) (fraction of control) in the series with RHOC came to 0.41.

With TTAAAATAGATAAGCATCTC, in the series with PCK2, the remaining target (mRNA or protein) (fraction of control) is no less than 1.

TTCCTCAGACCGAACGGG: the remaining target (mRNA or protein) (fraction of control) in the series with RHOC came out at 0.43.

The sequence TTCCTGTGAGCCAGAAGT came in with a remaining target (mRNA or protein) (fraction of control) with RHOC of 0.31.

TTCTCAAAGACAGTAGGG came in with a remaining target (mRNA or protein) (fraction of control) with RHOC of 0.98.

TTGCACGGCCACTGGCTCAC showed a remaining target (mRNA or protein) (fraction of control) with PCK2 of 0.94.

As to TTGCTGAAGACGATGAGG, the remaining target (mRNA or protein) (fraction of control) in the series with RHOC turned out to be 0.77.

On to TTTCCAGGGTTTGCCCAGCC, for which the remaining target (mRNA or protein) (fraction of control) in the series with PCK2 came to 0.55.

The record behind these values is the OligoGym collection.
